The values that follow come from US7071197B2, “N,N-disubstituted diazocycloalkanes” (Recordati S.A., priority 2002, dated 2006).

For one experiment, the target named is T1, human α1a-adrenoceptor (Homo sapiens, UniProt P35348).
T1 construct: expressed in transfected cells
T1 sequence (P35348 1-466): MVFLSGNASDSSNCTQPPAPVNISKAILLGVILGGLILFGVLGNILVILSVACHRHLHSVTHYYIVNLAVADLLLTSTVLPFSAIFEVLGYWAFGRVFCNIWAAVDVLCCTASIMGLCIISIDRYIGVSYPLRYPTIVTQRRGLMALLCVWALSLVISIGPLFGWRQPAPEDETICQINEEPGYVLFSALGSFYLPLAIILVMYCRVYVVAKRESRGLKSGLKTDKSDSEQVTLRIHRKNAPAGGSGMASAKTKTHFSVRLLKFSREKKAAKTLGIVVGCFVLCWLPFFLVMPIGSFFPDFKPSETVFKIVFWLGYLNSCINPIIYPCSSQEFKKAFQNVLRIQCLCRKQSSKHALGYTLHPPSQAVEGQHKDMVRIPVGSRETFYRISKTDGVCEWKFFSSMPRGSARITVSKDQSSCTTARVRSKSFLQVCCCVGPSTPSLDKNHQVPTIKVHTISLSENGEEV
Nature of the experiment: [3H]prazosin binding to cloned human α1-adrenoceptor subtypes (α1a). The following applies: for Ki: [3H]prazosin, CHO cell membranes, read-out: Binding affinity (Ki, nM) α1a; for α1a/5-HT1A: selectivity: ratio of Ki at α1a and Ki at 5-HT1A. The procedure:
Binding to cloned human α1-adrenoceptor subtypes was performed in membranes from CHO cells (chinese hamster ovary cells) transfected by electroporation with DNA expressing the gene encoding each α1-adrenoceptor subtype. Cloning and stable expression of the human α1-adrenoceptor gene was performed as previously described (Testa et al. Pharmacol. Comm., 6: 79–86,1995).
CHO cells were grown in suspension in Iscove's modified Dulbecco's medium, supplemented with 10% fetal calf serum and gentamicin (50 μg/ml), at 37° C. in 7% CO2 in an humidified incubator. Cells were collected by centrifugation, lised in ice-cold Tris 5 mM and EDTA 5 mM buffer (pH 7.4) and gently homogenised. Homogenates were centrifuged at 40000×g×20 min and pellets were resuspended in a small volume of ice-cold Tris 5 mM and EDTA 5 mM buffer (pH 7.4) and immediately frozen and stored at −80° C. until use.
CHO cell membranes were resuspended and incubated in 50 mM Tris, pH 7.4, with 0.2 nM [^3H]prazosin, in a final volume of 1.02 ml for 30 min at 25° C., in absence or presence of competing drugs. Non-specific binding was determined in the presence of 10 μM phentolamine. The incubation was stopped by rapid filtration through 0.2% polyethyleneimine pretreated Schleicher & Schuell GF52 filters using a Tomtec (PerkinElmer) cell harvester. The filters were washed with 3×1 ml of ice-cold Tris buffer, dried and the radioactivity was measured in a Betaplate (Wallac) liquid scintillation counter.
The inhibition of specific binding by the compounds was analysed to estimate the IC50 value by the non-linear curve-fitting program Allfit (De Lean et al. Am. J. Physiol. 235, E97-E102, 1978). The IC50 value is converted to an affinity constant (Ki) by the equation of Cheng & Prusoff (Biochem. Pharmacol. 22: 3099–3108, 1973).

For experiment [1], the target named is T2, human cloned 5-HT1A receptors (Homo sapiens, UniProt P08908).
T2 construct: expressed in transfected cells
T2 sequence (P08908 1-422): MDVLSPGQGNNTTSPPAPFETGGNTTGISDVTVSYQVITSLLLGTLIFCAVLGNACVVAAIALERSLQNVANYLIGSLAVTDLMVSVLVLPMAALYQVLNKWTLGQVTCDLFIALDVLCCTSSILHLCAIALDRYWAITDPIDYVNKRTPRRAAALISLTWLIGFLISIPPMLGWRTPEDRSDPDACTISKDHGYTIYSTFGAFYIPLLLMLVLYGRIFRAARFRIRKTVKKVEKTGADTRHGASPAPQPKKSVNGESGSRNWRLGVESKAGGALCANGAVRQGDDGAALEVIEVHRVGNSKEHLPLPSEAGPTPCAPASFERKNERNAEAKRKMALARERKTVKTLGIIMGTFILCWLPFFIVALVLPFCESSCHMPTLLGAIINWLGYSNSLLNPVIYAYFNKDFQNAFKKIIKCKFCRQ
The experiment in a line: [35S]GTPγS binding, membranes of HeLa cells transfected with human cloned 5-HT1A receptors. The following applies: 5-HT maximal stimulation taken as 100%. The class given is biochemical. The method, then:
A genomic clone coding for the human 5HT1A-serotonergic receptor was stably transfected in a human cell line (HeLa). HeLa cells were grown as monolayers in Dulbecco's modified Eagle medium (DMEM), containing 10% fetal bovine serum, gentamycin (0.1 mg/ml) and 5% carbon dioxide, at 37° C. The cells were detached from the growth flask at 95% confluence by a cell scraper and were lysed in cold 5 mM Tris and 5 mM EDTA buffer (pH 7.4). The homogenates were centrifuged at 40000×g×20 minutes and the pellets were resuspended in a small volume of cold 5 mM Tris and 5 mM EDTA buffer (pH 7.4) and immediately frozen and stored at −70° C. until use.
[^35S]GTPγS binding: on the experimental day, cell membranes from HeLa cells transfected with human cloned 5-HT1A receptors were resuspended in buffer pH 7.4 containing 20 mM HEPES, 3 mM MgCl2 and 120 mM NaCl (Stanton, J. A.; Beer, M. S. Eur. J. Pharmacol. 320, 267–275, 1997). The membranes were incubated with 10 μM GDP and decreasing concentrations of test drugs (from 100 μM to 0.1 nM) or decreasing concentrations of 5-HT (from 100 μM to 0.1 nM, reference curve) for 20 min at 30° C. in a final volume of about 0.25 ml. [^35S]GTPγS ([…] in 10 μl) was added to samples and incubated for a further 30 min at 30° C. Non-specific binding was determined in the presence of 10 μM GTPγS. The incubation was stopped by addition of ice-cold HEPES buffer and rapid filtration on Unifilter GF/C filters, using a Filtermate cell harvester (Packard). The filters were washed four times with total 1.2 ml of same buffer. Radioactivity was counted by liquid scintillation spectrometry with efficiency >90% (TopCount Packard). Stimulation of [^35S]GTPγS binding induced by the compounds tested was espressed as % increase in binding above basal value, being the maximal stimulation observed with 5-HT taken as 100%. The concentration-response curve of the agonistic activity was analyzed by non linear fitting program (De Lean et al., Am. J. Physiol. 235, E97-E102, 1978).
A stimulation of [^35S]GTPγS binding represented the functional correlate of the binding of an agonist compound at the 5-HT1A receptors. Stimulation induced by the endogenous ligand 5-HT was considered the maximal stimulation attainable.
A general note: GTPγS is a poorly hydrolysed GTP analogue; its binding reports G protein activation.

By Ki is commonly meant the dissociation constant of the complex between target and ligand, obtained from inhibition or displacement. Regarding `COc1ccccc1N1CCN(CC[C@@H](c2ccccc2F)[C@H](O)C2CCCCC2)CC1` (racemic) [Ex. 1, 1-[(SR-RS)-4-cyclohexyl-4-hydroxy-3-(2-fluorophenyl)-butyl]-4-(2-methoxyphenyl)-piperazine], on human α1a-adrenoceptor, the Ki was 18 nM and the α1a/5-HT1A is given as 138. Besides, the “Functional effect ([35S]GTPγS binding)” value in experiment [1] is listed as “Neutral antagonist”.

In the case of `COc1ccccc1N1CCN(CC[C@H](c2ccccc2)[C@@H](O)C2CCCCC2)CC1` (racemic) [Ex. 5, 1-[(RS,SR)-4-Cyclohexyl-4-hydroxy-3-phenyl-butyl]-4-(2-methoxyphenyl)-piperazine, reference compound], at human α1a-adrenoceptor, the Ki came out at 51 nM and the α1a/5-HT1A is recorded as 78. Moreover, the “Functional effect ([35S]GTPγS binding)” value in experiment [1] is on record as “Neutral antagonist”.

Consider `COc1ccccc1N1CCN(CC[C@H](c2ccccc2F)[C@@H](O)C2CCCCC2)CC1` [Ex. 1Y, 1-[(3R,4S)-4-cyclohexyl-4-hydroxy-3-(2-fluorophenyl)-butyl]-4-(2-methoxyphenyl)-piperazine], for which, at human α1a-adrenoceptor, the Ki was determined as 24 nM and the α1a/5-HT1A is listed as 65. Besides, the “Functional effect ([35S]GTPγS binding)” value in experiment [1] is recorded as “Neutral antagonist”.

`COc1ccccc1N1CCN(CC[C@H](c2ccccc2F)[C@H](O)C2CCCCC2)CC1` [Ex. 2X, 1-[(3R,4R)-4-cyclohexyl-4-hydroxy-3-(2-fluorophenyl)-butyl]-4-(2-methoxyphenyl)-piperazine]: on human α1a-adrenoceptor, the inhibitory constant (Ki) was found to be 44 nM and the α1a/5-HT1A came to 183. Besides, the “Functional effect ([35S]GTPγS binding)” value in experiment [1] is “Neutral antagonist”.
